Assay results as given in patent US10016382B2, “Method for decreasing skeletal muscle damage and/or oxidative stress in mammals” (LONZA INC., priority 2014, dated 2018).
Several values for one entry are separate records, joined by “and”; a condition that tells them apart may be missing. Equal values may be shown once.

Assays:
[1] = system: Labrador Retrievers; assay: Heart rate and body temperature recovery following 15 mile run, Example 1; type: in vivo, dog; settings: Ex.1, 250 mg/d; for Dog body temperature after run / Heartrate after run / Temperature before run / Heartrate before run: mean ± SEM; for Temperature before run / Heartrate before run: before 15 mile run
Source text: Each test dog wore an Actical activity monitor from Philips Respironics on a collar for the short higher intensity runs and also wore an Actical activity monitor for the weekly longer endurance runs. The activity data was downloaded into spread sheets along with each dogs identity. Twenty four hours after each long run during the 13 wk running program each of the dogs were scored by kennel staff for soreness or any type of lameness The exercise program was decreased in a tapering program during wk 11 and 12 to allow the dogs to rest for the final long run completed on wk 13. Pre-run serum samples from each test dog was taken 24 hr before the last endurance run. The heart rate and basal body temperature was determined for each test dog prior to the last long endurance run. Each performance dog also wore the Actical activity monitor during the last endurance run. The dogs were put through a 15 mile run that included mud, water, tall grass, and swimming. The dogs were timed when they completed the course. The dogs were encouraged by kennel staff that rode along in a 4 wheel all terrain type vehicle during all of the endurance runs. […] Immediately following the 15 mile endurance run, each dog was placed in a kennel and evaluated for recovery time for body temperature (every 15 minutes for 2 hr) and heart rate (every 2 minutes for 14 minutes). Twenty four hours after test dogs ran the last 15 endurance run, post-run serum samples were taken to evaluate biomarkers for muscle damage and antioxidant status. Each test dog was also scanned with the GE Prodigy DEXA to determine body composition change that occurred during the course of the 13 wk study. The dogs were timed during the last 15 mile run at the end of the study. The body temperature and heart rate for each dog was determined just prior to the long 15 mile run. The heart rate measurements were determined manually and body temperature was determined by using a rectal thermometer. Each staff member was responsible for determining the time required to complete the run for one of the test dogs in each set. Each staff member was also responsible for determining the heart rate and body temperature of their specific assigned dog immediately upon their return after the run. The heart rate was determined every 2 minutes for a fourteen minute period following the last long run and the body temperature was determined every 15 minute for a two hour period after completing the long run. The heart rate and body temperature was determined both before and after to evaluate the fitness and time required after run to reach basal HR and body temperatures.

[2] = Body composition by DEXA scan, Example 2 part one; type: in vivo, dog; settings: for Lean mass (LM) change / Total tissue mass change: over 14 week study
Source text: Each dog was also scanned for body composition as described in Example 1 just prior to the beginning of the study and twenty-four hours following the final endurance run.

[3] = 0 min after 15 mile run, both sexes
[4] = 0 min after 15 mile run, females
[5] = Ex.2 part one, 250 mg/d, both sexes
[6] = Ex.2 part one, 250 mg/d, females

C[N+](C)(C)C[C@H](O)CC(=O)[O-] [L-carnitine]
Dog body temperature after run [1, 3]: 103.7 ± 0.3 n = 19 ° F.
Heartrate after run [1, 3]: 159 and 159 ± 4 n = 16
Dog body temperature after run [1, 4]: 103.6 ± 0.5 n = 9 ° F.
Heartrate after run [1, 4]: 155 ± 5 n = 8
Dog body temperature after run ([1]; 0 min after 15 mile run, males): 103.8 ± 0.3 n = 10 ° F.
Heartrate after run ([1]; 0 min after 15 mile run, males): 164 ± 6 n = 11
Heartrate after run ([1]; 2 min after 15 mile run, both sexes): 146 ± 5 n = 16
Heartrate after run ([1]; 2 min after 15 mile run, females): 139 ± 6 n = 8
Heartrate after run ([1]; 2 min after 15 mile run, males): 149 ± 6 n = 11
Heartrate after run ([1]; 4 min after 15 mile run, both sexes): 131 ± 5 n = 16
Heartrate after run ([1]; 4 min after 15 mile run, females): 123 ± 6 n = 8
Heartrate after run ([1]; 4 min after 15 mile run, males): 143 ± 8 n = 11
Heartrate after run ([1]; 6 min after 15 mile run, both sexes): 123 ± 5 n = 16
Heartrate after run ([1]; 6 min after 15 mile run, females): 120 ± 6 n = 8
Heartrate after run ([1]; 6 min after 15 mile run, males): 131 ± 6 n = 11
Heartrate after run ([1]; 8 min after 15 mile run, both sexes): 114 ± 4 n = 16
Heartrate after run ([1]; 8 min after 15 mile run, females): 111 ± 6 n = 8
Heartrate after run ([1]; 8 min after 15 mile run, males): 125 ± 6 n = 11
Heartrate after run ([1]; 10 min after 15 mile run, both sexes): 113 ± 5 n = 16
Heartrate after run ([1]; 10 min after 15 mile run, females): 109 ± 5 n = 8
Heartrate after run ([1]; 10 min after 15 mile run, males): 120 ± 6 n = 11
Heartrate after run ([1]; 12 min after 15 mile run, both sexes): 107 ± 4 n = 16
Heartrate after run ([1]; 12 min after 15 mile run, females): 107 ± 7 n = 7
Heartrate after run ([1]; 12 min after 15 mile run, males): 112 ± 5 n = 11
Heartrate after run ([1]; 14 min after 15 mile run, both sexes): 101 ± 4 n = 16
Heartrate after run ([1]; 14 min after 15 mile run, females): 103 ± 7 n = 7
Heartrate after run ([1]; 14 min after 15 mile run, males): 102 ± 5 n = 10
Dog body temperature after run ([1]; 15 min after 15 mile run, both sexes): 102.6 ± 0.2 n = 20 ° F.
Dog body temperature after run ([1]; 15 min after 15 mile run, females): 102.6 ± 0.4 n = 9 ° F.
Dog body temperature after run ([1]; 15 min after 15 mile run, males): 102.5 ± 0.2 n = 11 ° F.
Dog body temperature after run ([1]; 30 min after 15 mile run, both sexes): 101.6 ± 0.1 n = 20 ° F.
Dog body temperature after run ([1]; 30 min after 15 mile run, females): 101.3 ± 0.2 n = 9 ° F.
Dog body temperature after run ([1]; 30 min after 15 mile run, males): 101.9 ± 0.1 n = 11 ° F.
Dog body temperature after run ([1]; 45 min after 15 mile run, both sexes): 101.1 ± 0.1 n = 20 ° F.
Dog body temperature after run ([1]; 45 min after 15 mile run, females): 101 ± 0.2 n = 9 ° F.
Dog body temperature after run ([1]; 45 min after 15 mile run, males): 101.1 ± 0.1 n = 11 ° F.
Dog body temperature after run ([1]; 60 min after 15 mile run, both sexes): 100.9 ± 0.2 n = 20 ° F.
Dog body temperature after run ([1]; 60 min after 15 mile run, females): 100.8 ± 0.3 n = 9 ° F.
Dog body temperature after run ([1]; 60 min after 15 mile run, males): 101 ± 0.2 n = 11 ° F.
Dog body temperature after run ([1]; 75 min after 15 mile run, both sexes): 100.7 ± 0.2 n = 19 ° F.
Dog body temperature after run ([1]; 75 min after 15 mile run, females): 100.7 ± 0.3 n = 8 ° F.
Dog body temperature after run ([1]; 75 min after 15 mile run, males): 100.7 ± 0.2 n = 11 ° F.
Dog body temperature after run ([1]; 90 min after 15 mile run, both sexes): 100.7 ± 0.2 n = 20 ° F.
Dog body temperature after run ([1]; 90 min after 15 mile run, females): 100.6 ± 0.3 n = 9 ° F.
Dog body temperature after run ([1]; 90 min after 15 mile run, males): 100.8 ± 0.2 n = 11 ° F.
Dog body temperature after run ([1]; 105 min after 15 mile run, both sexes): 100.4 ± 0.2 n = 19 ° F.
Dog body temperature after run ([1]; 105 min after 15 mile run, females): 100.2 ± 0.4 n = 8 ° F.
Dog body temperature after run ([1]; 105 min after 15 mile run, males): 100.5 ± 0.2 n = 11 ° F.
Dog body temperature after run ([1]; 120 min after 15 mile run, both sexes): 100.7 ± 0.2 n = 14 ° F.
Dog body temperature after run ([1]; 120 min after 15 mile run, females): 100.7 ± 0.4 n = 4 ° F.
Dog body temperature after run ([1]; 120 min after 15 mile run, males): 100.8 ± 0.2 n = 10 ° F.
Time to get heart rate back to basal levels ([1]; after 15 mile run, both treatments required this time): approximately 14 minutes
Temperature before run ([1]; both sexes): 101.3 ± 0.2 n = 20 ° F.
Heartrate before run ([1]; females): 89 ± 3 n = 9
Temperature before run ([1]; females): 101.0 ± 0.1 n = 9 ° F.
Heartrate before run ([1]; males): 89 ± 3 n = 11
Temperature before run ([1]; males): 101.7 ± 0.4 n = 11 ° F.
Heart rate and body temperature recovery vs control ([1]; following the final long run): not different
Time back to pre-run core temperature ([1]; males, following 15 mile run, both groups): 30 to 45 min
Increase in % fat mass ([2]; Ex.2 part one, 250 mg/d, females, vs 3.01% control females (p=0.3893)): 1.58%
Lean mass (LM) change [2, 5]: 0.68 kg
Total tissue mass change [2, 5]: 0.74 kg
Lean mass (LM) change [2, 6]: 0.45 kg
Total tissue mass change [2, 6]: 0.78 kg
Lean mass (LM) change ([2]; Ex.2 part one, 250 mg/d, males): 0.91 kg
Total tissue mass change ([2]; Ex.2 part one, 250 mg/d, males): 0.70 kg
% Fat ([2]; Female, Change): 1.58 ± 1.29%
BMC ([2]; Female, Change): 9.54 ± 6.72 g
BMD ([2]; Female, Change): 0.0029 ± 0.005 g/cm2
Fat ([2]; Female, Change): 0.56 ± 0.35 kg
Lean Mass ([2]; Female, Change): 0.45 ± 0.21 kg
Total Tissue ([2]; Female, Change): 0.78 ± 0.27 kg
% Fat ([2]; Female, Final): 18.43 ± 1.75%
BMC ([2]; Female, Final): 716.5 ± 30.63 g
BMD ([2]; Female, Final): 0.58 ± 0.01 g/cm2
Fat ([2]; Female, Final): 4.62 ± 0.57 kg
Lean Mass ([2]; Female, Final): 19.95 ± 0.65 kg
Total Tissue ([2]; Female, Final): 24.34 ± 0.94 kg
% Fat ([2]; Female, Initial): 16.85 ± 2.1%
BMC ([2]; Female, Initial): 706.96 ± 30.19 g
BMD ([2]; Female, Initial): 0.58 ± 0.01 g/cm2
Fat ([2]; Female, Initial): 4.07 ± 0.59 kg
Lean Mass ([2]; Female, Initial): 19.49 ± 0.69 kg
Total Tissue ([2]; Female, Initial): 23.56 ± 0.86 kg
% Fat ([2]; Male, Change): 0.49 ± 0.61%
BMC ([2]; Male, Change): 6.54 ± 6.57 g
BMD ([2]; Male, Change): 0.011 ± 0.005 g/cm2
Fat ([2]; Male, Change): 0.22 ± 0.2 kg
Lean Mass ([2]; Male, Change): 0.91 ± 0.22 kg
Total Tissue ([2]; Male, Change): 0.7 ± 0.19 kg
% Fat ([2]; Male, Final): 14.81 ± 1.05%
BMC ([2]; Male, Final): 927.39 ± 25.32 g
BMD ([2]; Male, Final): 0.65 ± 0.01 g/cm2
Fat ([2]; Male, Final): 4.56 ± 0.36 kg
Lean Mass ([2]; Male, Final): 26.54 ± 0.71 kg
Total Tissue ([2]; Male, Final): 30.67 ± 0.72 kg
% Fat ([2]; Male, Initial): 14.31 ± 1.16%
BMC ([2]; Male, Initial): 920.86 ± 25.96 g
BMD ([2]; Male, Initial): 0.64 ± 0.01 g/cm2
Fat ([2]; Male, Initial): 4.34 ± 0.42 kg
Lean Mass ([2]; Male, Initial): 25.63 ± 0.58 kg
Total Tissue ([2]; Male, Initial): 29.97 ± 0.75 kg
% Fat ([2]; all dogs, Change): 1.04 ± 0.71%
BMC ([2]; all dogs, Change): 8.04 ± 4.62 g
BMD ([2]; all dogs, Change): 0.007 ± 0.003 g/cm2
Fat ([2]; all dogs, Change): 0.39 ± 0.2 kg
Lean Mass ([2]; all dogs, Change): 0.68 ± 0.16 kg
Total Tissue ([2]; all dogs, Change): 0.74 ± 0.16 kg
% Fat ([2]; all dogs, Final): 16.62 ± 1.06%
BMC ([2]; all dogs, Final): 821.95 ± 28.14 g
BMD ([2]; all dogs, Final): 0.61 ± 0.01 g/cm2
Fat ([2]; all dogs, Final): 4.59 ± 0.33 kg
Lean Mass ([2]; all dogs, Final): 23.24 ± 0.79 kg
Total Tissue ([2]; all dogs, Final): 27.5 ± 0.84 kg
% Fat ([2]; all dogs, Initial): 15.58 ± 1.2%
BMC ([2]; all dogs, Initial): 813.91 ± 28.38 g
BMD ([2]; all dogs, Initial): 0.608 ± 0.01 g/cm2
Fat ([2]; all dogs, Initial): 4.2 ± 0.35 kg
Lean Mass ([2]; all dogs, Initial): 22.56 ± 0.74 kg
Total Tissue ([2]; all dogs, Initial): 26.76 ± 0.83 kg
